Source: patent publication US10448639B2, “Fungicidal pyrazoles” (FMC CORPORATION, priority 2009, dated 2019)
Marks after values point to notes of the source that are not given here.

Tests used:
[1] = test system: Puccinia recondita f. sp. tritici; assay: Test I: wheat leaf rust, preventive spray on wheat seedlings, visual disease rating; conditions: wheat leaf rust; for Test I rating (% disease control) / Test I disease control rating: 100 = 100% disease control; for Test I disease control rating: sprayed the day before inoculation, 0 = no disease control relative to controls
[2] = test system: Botrytis cinerea; assay: Test B: tomato Botrytis, preventive spray on tomato seedlings, visual disease rating; conditions: tomato Botrytis; for Test B rating (% disease control) / Test B disease control rating: 100 = 100% disease control; for Test B disease control rating: 0 = no disease control relative to controls
[3] = test system: Septoria tritici; assay: Test G: wheat leaf blotch, preventive spray on wheat seedlings, visual disease rating; conditions: wheat leaf blotch; for Test G rating (% disease control) / Test G disease control rating: 100 = 100% disease control; for Test G disease control rating: sprayed the day before inoculation, 0 = no disease control relative to controls
[4] = test system: Alternaria solani; assay: Test C: tomato early blight, preventive spray on tomato seedlings, visual disease rating; conditions: tomato early blight; for Test C rating (% disease control) / Test C disease control rating: 100 = 100% disease control; for Test C disease control rating: 0 = no disease control relative to controls
[5] = test system: Erysiphe graminis f sp. tritici; assay: Test J: wheat powdery mildew, preventive spray on wheat seedlings, visual disease rating; conditions: wheat powdery mildew; for Test J rating (% disease control) / Test J disease control rating: 100 = 100% disease control; for Test J disease control rating: sprayed the day before inoculation, 0 = no disease control relative to controls
[6] = test system: Septoria nodorum; assay: Test F: Septoria glume blotch, preventive spray on wheat seedlings, visual disease rating; conditions: for Test F rating (% disease control) / Test F disease control rating: 100 = 100% disease control; for Test F disease control rating: 0 = no disease control relative to controls
[7] = test system: Puccinia recondita f. sp. tritici; assay: Test H: wheat leaf rust, curative spray on inoculated wheat seedlings, visual disease rating; conditions: wheat leaf rust; for Test H rating (% disease control) / Test H disease control rating: 100 = 100% disease control; for Test H disease control rating: sprayed after inoculation, 0 = no disease control relative to controls
[8] = preventive spray, 0 = no control
[9] = Septoria glume blotch on wheat, preventive spray, 0 = no control
[10] = rating marked with asterisk (*), meaning not given
[11] = preventive, 0 = no control relative to controls
[12] = 0 = no control relative to controls
[13] = Septoria glume blotch, 0 = no control relative to controls
[14] = curative, 0 = no control relative to controls

Structure (SMILES)	Test I rating (% disease control) [1, 8]	Test B rating (% disease control) [2, 8]	Test G rating (% disease control) [3, 8]	Test C rating (% disease control) [4, 8]	Test J rating (% disease control) [5, 8]	Test F rating (% disease control) [6, 9]	Test H rating (% disease control) ([7]; curative spray, 0 = no control)	Test I rating (% disease control) [1, 11]	Test B rating (% disease control) [2, 12]	Test G rating (% disease control) [3, 12]	Test C rating (% disease control) [4, 12]	Test J rating (% disease control) [5, 12]	Test F rating (% disease control) [6, 13]	Test H rating (% disease control) [7, 14]	further results
COc1cc(OC)cc(-c2c(C)nn(C)c2Oc2ccc(Cl)cc2)c1 [compound 16]	28%	60%	47%	0%	0%	0%	48%	–	–	–	–	–	–	–	–
Cc1nn(C)c(Nc2ccc(F)cc2F)c1-c1cccc(Cl)c1Cl [compound 302]	–	–	–	–	–	–	–	–	–	–	–	–	–	–	Test I rating (% disease control), marked * ([1]; preventive, rating marked with asterisk (*), meaning not given): 18* %; Test B rating (% disease control), marked * [2, 10]: 99* %; Test G rating (% disease control), marked * [3, 10]: 99* %; Test C rating (% disease control), marked * [4, 10]: 0* %; Test J rating (% disease control), marked * [5, 10]: 97* %; Test F rating (% disease control), marked * ([6]; Septoria glume blotch, rating marked with asterisk (*), meaning not given): 0* %; Test H rating (% disease control), marked * ([7]; curative, rating marked with asterisk (*), meaning not given): 0* %
Cc1nn(C)c(Nc2ncc(Cl)cc2Cl)c1-c1ccc(F)cc1Cl [compound 73]	100%	100%	100%	99%	99%	64%	88%	–	–	–	–	–	–	–	–
Cc1nn(C)c(Nc2cc(Cl)ccc2F)c1-c1c(F)cc(C#N)cc1F [compound 142]	95%	33%	99%	13%	90%	20%	0%	–	–	–	–	–	–	–	–
Cc1nn(C)c(Nc2ccc(F)cc2)c1-c1ccccc1C(F)(F)F [compound 237]	–	–	–	–	–	–	–	68%	99%	97%	0%	97%	0%	0%	–
Cc1nn(C)c(Oc2c(F)cc(C#N)cc2F)c1-c1cc(C(F)(F)F)ccc1Cl [compound 307]	–	–	–	–	–	–	–	–	–	–	–	–	–	–	Test I disease control rating [1]: 0%; Test B disease control rating [2]: 0%; Test G disease control rating [3]: 0%; Test C disease control rating [4]: 0%; Test J disease control rating [5]: 0%; Test F disease control rating ([6]; Septoria glume blotch on wheat): 0%; Test H disease control rating [7]: 0%
Cc1nn(C)c(Nc2cncnc2)c1-c1ccc(F)cc1Cl [compound 270]	–	–	–	–	–	–	–	0%	92%	91%	86%	81%	0%	8%	–
CCOc1ccc(Nc2c(-c3ccc(F)cc3Cl)c(C)nn2C)c(Cl)c1 [compound 325]	–	–	–	–	–	–	–	–	–	–	–	–	–	–	Test I disease control rating [1]: 97%; Test B disease control rating [2]: 100%; Test G disease control rating [3]: 100%; Test C disease control rating [4]: 0%; Test J disease control rating [5]: 99%; Test F disease control rating ([6]; Septoria glume blotch on wheat): 0%; Test H disease control rating [7]: 0%
Cc1ncc(Nc2c(-c3ccc(F)cc3Cl)c(C)nn2C)cn1 [compound 269]	–	–	–	–	–	–	–	0%	80%	67%	0%	0%	0%	8%	–
Cc1nn(C)c(Nc2ccc(Cl)cc2F)c1-c1c(F)cc(C#N)cc1F [compound 143]	100%	99%	100%	99%	100%	100%	63%	–	–	–	–	–	–	–	–
Cc1nn(C)c(Nc2cc(F)c(F)c(F)c2)c1-c1ccc(F)cc1Cl [compound 132]	94%	99%	100%	0%	92%	0%	0%	–	–	–	–	–	–	–	–
Cc1nn(C)c(Nc2ccc(F)cc2Cl)c1-c1ccc(F)cc1Br [compound 314]	–	–	–	–	–	–	–	–	–	–	–	–	–	–	Test I disease control rating [1]: 100%; Test B disease control rating [2]: 100%; Test G disease control rating [3]: 100%; Test C disease control rating [4]: 95%; Test J disease control rating [5]: 100%; Test F disease control rating ([6]; Septoria glume blotch on wheat): 0%; Test H disease control rating [7]: 94%
Cc1nn(C)c(Nc2cc(F)c(F)cc2F)c1-c1ccc(F)cc1F [compound 229]	–	–	–	–	–	–	–	91%	99%	99%	17%	98%	0%	0%	–
Cc1nn(C)c(Nc2c(F)cc(F)cc2F)c1-c1ccc(F)c(F)c1 [compound 35]	97%	100%	95%	0%	100%	0%	0%	–	–	–	–	–	–	–	–
COc1cc(F)c(Nc2c(-c3c(F)cccc3F)c(C)nn2C)c(F)c1 [compound 257]	–	–	–	–	–	–	–	97%	100%	100%	99%	98%	0%	0%	–
COc1cc(Nc2c(-c3c(F)cc(C#N)cc3F)c(C)nn2C)ccc1F [compound 127]	68%	70%	99%	0%	0%	0%	0%	–	–	–	–	–	–	–	–
Cc1nn(C)c(Nc2ccc(F)cc2F)c1-c1c(F)cccc1C(F)(F)F [compound 255]	–	–	–	–	–	–	–	0%	100%	0%	0%	39%	0%	0%	–
Cc1nn(C)c(Nc2ccc(F)cc2F)c1-c1ccccc1F [compound 181]	–	–	–	–	–	–	–	60%	94%	100%	44%	98%	0%	0%	–
Cc1nn(C)c(Nc2ccc(F)c(F)c2)c1-c1c(F)cc(C#N)cc1F [compound 114]	99%	99%	99%	24%	84%	69%	8%	–	–	–	–	–	–	–	–
COc1cc(F)c(-c2c(C)nn(C)c2Nc2ccc(C)cn2)c(F)c1 [compound 66]	100%	100%	100%	99%	99%	0%	6%	–	–	–	–	–	–	–	–
Cc1nn(C)c(Oc2ccc(Cl)cc2Cl)c1-c1c(F)cc(F)cc1F [compound 38]	99%	99%	97%	9%	99%	0%	0%	–	–	–	–	–	–	–	–
Cc1ccc(-c2c(C)nn(C)c2Nc2c(F)cc(F)cc2F)cc1 [compound 79]	55%	99%	99%	0%	0%	0%	0%	–	–	–	–	–	–	–	–
